Laboratory results as given in article PMC6303473 (Nature Communications, 2018).

Tested on: CD8+ T cells from HLA-B*44:02, HLA-B*44:03, or HLA-B*18:01 individuals
Type: cell-based, human
Details: ICS
Source text: Fig. 1 NP338 elicits robust CD8^+ T cell responses only in the context of HLA-B*37:01. a–d Crystal structures of a HLA-B*37:01 (purple), b HLA-B*18:01 (blue), and c HLA-B*44:05 (yellow) in complex with NP338 WT (represented in black stick). d is showing an overlay of the three peptide–HLA complexes in cartoon representation, with NP338 colored accordingly to the bound HLA, namely, purple (HLA-B*37:01), blue (HLA-B*18:01), and yellow (HLA-B*44:05). e–g PBMCs from HLA-B*37:01^+ donors (n = 5), HLA-B*44:02^+ donors (n = 5), HLA-B*44:03^+ donors (n = 5), or HLA-B*18:01^+ donors (n = 5) were stimulated with a pool of NP338 peptides (10 μM each peptide, 30 μM total), and specificity was assessed in an ICS assay against 3 μM NP338 pool (1 μM each peptide, HLA-B*44:02^+ donors) directly into the well or 30 μM (10 μM each peptide, all other donors) NP338-pooled pulsed APC lines (HLA-B*37:01, HLA-B*44:03, and HLA-B*18:01). CD8^+ T cells are gated on lymphocytes, singlets, live^+ (when stained with the second antibody cocktail only) CD3^mid-high, CD8^+ T cells; as per Supplementary Fig. 2a. e Representative dot plots of IFNγ^+TNFα^+ production by pooled CD8^+ T cell lines derived from HLA-B*37:01^+, HLA-B*44:02^+, HLA-B*44:03^+, or HLA-B*18:01^+ donors, towards a pool of NP338 peptides. […]

Row | Compound | CD8+ T cell response to non-specific stimulation
1 | CCCCCCCCCCCCCC(=O)O[C@@H]1[C@@H](C)[C@@]2(O)[C@@H](C=C(CO)C[C@]3(O)C(=O)C(C)=C[C@@H]23)[C@@H]2C(C)(C)[C@]12OC(C)=O [phorbol 12-myristate 13-acetate] | responded strongly
2 | Concanavalin A | responded strongly
